Data from ChEMBL document CHEMBL4000169, “Overexpression of the Global Regulator LaeA in Chaetomium globosum Leads to the Biosynthesis of Chaetoglobosin Z” (J Nat Prod, 2016).

test system: HepG2; assay: Cytotoxicity against human HepG2 cells by MTT assay; assay type: functional, cell-based

Row | SMILES | IC50
1 | CC1=C(C)[C@H]2[C@H](Cc3c[nH]c4ccccc34)NC(=O)[C@]23C(=O)CCC(=O)[C@H](O)/C(C)=C/[C@@H](C)C/C=C/[C@H]3[C@@H]1O | 8.5 µM
2 | C/C1=C\[C@@H](C)C/C=C/[C@H]2C(=O)[C@@H](C)[C@@H](C)[C@H]3[C@H](Cc4c[nH]c5ccccc45)NC(=O)[C@]32C(=O)/C=C/C(=O)[C@@H]1O | 2.9 µM
3 | CC1=C(O)C(=O)[C@H]2CC(=O)[C@@]34C(=O)N[C@@H](Cc5c[nH]c6ccccc56)[C@@H]3C(C)=C(C)[C@@H](O)[C@@H]4/C=C/C[C@H](C)[C@H]12 | 12.8 µM
4 | C/C1=C\[C@@H](C)C/C=C/[C@H]2[C@@H]3O[C@]3(C)[C@@H](C)[C@H]3[C@H](Cc4c[nH]c5ccccc45)NC(=O)[C@]32C(=O)/C=C/C(=O)[C@@H]1O [CHAETOGLOBOSIN A] | 6.3 µM
5 | CC1=C(C)[C@H]2[C@H](Cc3c[nH]c4ccccc34)NC(=O)[C@]23C(=O)CC[C@H](O)C(=O)/C(C)=C/[C@@H](C)C/C=C/[C@H]3[C@@H]1O [CHAETOGLOBOSIN E] | 3.6 µM
6 | CC1=C(C)[C@H]2[C@H](Cc3c[nH]c4ccccc34)NC(=O)[C@]23C(=O)/C=C/C(=O)[C@H](O)/C(C)=C/[C@@H](C)C/C=C/[C@H]3[C@@H]1O [CHEATOGLOBOSIN B] | 5.2 µM
7 | COc1cc([C@@H]2c3cc4c(cc3[C@@H](O[C@@H]3O[C@@H]5CO[C@@H](C)O[C@H]5[C@H](O)[C@H]3O)[C@H]3COC(=O)[C@H]23)OCO4)cc(OC)c1O [ETOPOSIDE] | 15.8 µM
